{"source": "patent US20100323955A1", "about": "“METHODS FOR TREATING OBESITY AND OBESITY RELATED DISEASES AND DISORDERS” (AMYLIN PHARMACEUTICALS, INC., priority 2007, published 2010)", "key": {"[1]": {"assay": "Example 4: amylin and phentermine in DIO rats, body weight and body composition", "format": "in vivo, rat", "settings": "after two weeks, FIG. 11C", "protocol": "The combination of amylin and catecholaminergic agonist, phentermine, were also tested for effects on changes in body weight and body composition. Phentermine is classically referred to as a catecholaminergic agonist as it actually hits NA/5-HT receptors. DIO male rats were fattened and divided into four treatment groups, as described above. Each group was implanted with subcutaneous osmotic mini-pumps and/or inserted with an oral gavage, designed to deliver vehicle, phentermine (10 mg/kg/day), amylin (100 μg/kg/day) or phentermine (10 mg/kg/day)+amylin (100 μg/kg/day) for a 14 day period. The mini-pump contained either vehicle (50% DMSO in water) or amylin while the oral gavage administered either sterile water or phentermine Body weight was recorded daily and body composition was measured prior to and after drug treatment using NMR."}, "[2]": {"assay": "Example 8: 24-week randomized, double-blind clinical study of pramlintide and metreleptin in overweight and obese subjects", "format": "in vivo, human", "settings": "for rate of change in body weight, late rate (12-20 weeks): 24-week study, FIG. 24", "protocol": "To evaluate inter alia the safety, tolerability and effect of the combination of an amylin agonist (pramlintide) and a leptin (metreleptin) on changes in body weight, a 24-week, randomized, double-blind, active-drug-controlled, multicenter study was conducted under USFDA approved protocols. Secondary objectives of the study were the determination of the pharmacokinetics of pramlintide and leptin, waist circumference, rate of change in body weight, and patient reported outcomes including for example without limitation perception of well-being related to weight change and mood. The study enrolled overweight and obese subjects with defined BMI ([…]), with enrollment statistics as provided in Table 2. […] Subjects treated with pramlintide/metreleptin lost an average of 25 pounds from the start of the 24-week study compared with an average of 17 pounds for subjects treated with pramlintide alone.\nIn an initial lead-in phase, all subjects received dietary instructions and treatment with pramlintide at 180 mcg BID for two weeks, followed by pramlintide at 360 mcg BID for two weeks. Subjects who completed the 4-week lead-in period and who lost 2-8 percent body weight during this period were eligible to continue the study. The term “enrolled” (Table 2) refers to subjects (N=177) receiving at least one dose of pramlintide during the lead-in period. The term “non-randomized” refers to subjects not continuing in the study past the lead-in period. The term “evaluable” refers to subjects who completed Visit 9 (Week 16) study procedures and adequately complied with the study protocol.\nAfter the 4-week lead-in period, for the remaining 20 weeks of the study the subjects were randomized in a 2:2:1 ratio to one of three groups with BID treatment of 1) pramlintide 360 mcg/metreleptin 5 mg (“Leptin+Pramlintide”); 2) pramlintide 360 mcg/placebo (“Pramlintide”); or 3) metreleptin 5 mg/placebo (“Leptin”)."}, "[3]": {"assay": "Example 5: amylin and rimonabant (CB-1 antagonist) in DIO rats, body weight and body composition", "format": "in vivo, rat", "settings": "after two weeks, FIG. 12C", "protocol": "These rats were developed by Barry Levin from a line of Crl:CD®(SD)BR rats that are prone to become obese on a diet relatively high in fat and energy. They were housed individually in shoebox cages at 22 C in a 12/12-hour light dark cycle. […] Rats were habituated to oral gavage for 1 week prior to treatment. Rimonabant was administered at a range of doses (0.1, 0.3, 1.0, 3.0. 10 mg/kg/day) by oral gavage. Amylin (dissolved in 50% DMSO sterile water) or vehicle was administered by mini-pump (100 μg/kg/day). Rimonabant was always delivered just prior to lights out. Food intake and body weight were measured at 1 and 2 weeks post-treatment. Body composition was measured prior to and after drug treatment using NMR (Echo Medical Systems, Houston, Tex.). For body composition measurements, rats were briefly placed (˜1 min) in a well-ventilated plexiglass tube that was then inserted into a specialized rodent NMR machine. Rats were scanned prior to pump implantation and on the final day of the experiment. This enabled the calculation of changes in actual grams of fat and dry lean tissue (e.g., grams of body fat after treatment−grams of body fat at baseline=change in grams of body fat) and changes in % body composition for fat and dry lean tissue (e.g., % body fat after treatment−% body fat at baseline=change in % body fat)."}, "[4]": {"assay": "Example 4: amylin and sibutramine in DIO rats, body weight and body composition", "format": "in vivo, rat", "settings": "after two weeks, FIG. 10C", "protocol": "(§1) Rat amylin was dissolved in 50% DMSO in sterile water and sibutramine was dissolved in sterile water. Each group was implanted with subcutaneous osmotic mini-pumps designed to deliver vehicle, sibutramine (3 mg/kg/day) or amylin (100 μg/kg/day) for a 14 day period. Body weight and food intake were recorded daily. Body composition was measured prior to and after drug treatment using NMR (Echo Medical Systems, Houston, Tex.). For body composition measurements, rats were briefly placed (˜1 min) in a well-ventilated plexiglass tube that was then inserted into a specialized rodent NMR machine. Rats were scanned prior to pump implantation and on the final day of the experiment. This enabled the calculation of changes in actual grams of fat and dry lean tissue (e.g., grams of body fat after treatment−grams of body fat at baseline=change in grams of body fat) and changes in % body composition for fat and dry lean tissue (e.g., % body fat after treatment−% body fat at baseline=change in % body fat)."}, "[5]": {"assay": "Example 3: serum leptin levels (immunoassay) in DIO prone and normal HSD rats after amylin", "format": "in vivo, rat", "settings": "amylin 100 μg/kg/day, 14 days, FIG. 8", "protocol": "DIO prone and normal HSD rats were divided into three treatment groups. Two groups were implanted with subcutaneous osmotic mini-pumps (DURECT Corp., Cupertino, Calif.) designed to deliver vehicle or amylin (100 μg/kg/day) and the third group was pair-fed to the amount consumed by the amylin-treated group for a 14 day period. Serum leptin levels were determined by immunoassays using a commercial kit (Linco Research, Inc., St. Charles, Mo.). […] Thus, DIO prone rats are hyper-leptinemic."}, "[6]": {"assay": "Example 6: amylin and exendin-4 analog in DIO rats, body weight and body composition", "format": "in vivo, rat", "settings": "after two weeks, FIG. 15C", "protocol": "[…]. Prior to drug administration rats had typically attained a mean body weight of 500 g Exendin-4 analog was administered by minipump at a range of doses (0.3, 1, 3, 10, 30 μg/kg/day). Amylin (dissolved in 50% DMSO in water) or vehicle was administered by mini-pump (100 μg/kg/day). Body weight and food intake was recorded daily. Body composition was measured prior to and after drug treatment using NMR (Echo Medical Systems, Houston, Tex.). For body composition measurements, rats were briefly placed (˜1 min) in a well-ventilated plexiglass tube that was then inserted into a specialized rodent NMR machine. Rats were scanned prior to pump implantation and on the final day of the experiment. This enabled the calculation of changes in actual grams of fat and dry lean tissue (e.g., grams of body fat after treatment−grams of body fat at baseline=change in grams of body fat) and changes in % body composition for fat and dry lean tissue (e.g., % body fat after treatment−% body fat at baseline=change in % body fat)."}, "[7]": {"assay": "Example 7: amylin and PYY(3-36) in DIO rats, body weight and body composition", "format": "in vivo, rat", "settings": "after two weeks, FIG. 16C", "protocol": "as §1, with “Food intake and body weight” for “Rat amylin”, “was” for “was dissolved in 50% DMSO in sterile water and sibutramine was dissolved in sterile water. Each group was implanted with subcutaneous osmotic mini-pumps designed to deliver vehicle, sibutramine (3 mg/kg/day) or amylin (100 μg/kg/day) for a 14 day period. Body weight and food intake were”"}}}
{"molecule": "CC(C)(N)Cc1ccccc1", "note": "[phentermine, reference compound]", "values": [{"measurement": "changes in body protein (lean (protein) mass)", "setting": "[1]", "result": "unchanged or tended to be lost"}]}
{"molecule": "CC[C@H](C)[C@H](NC(=O)[C@@H]1CCCN1C(=O)CNC(=O)[C@H](Cc1ccccc1)NC(=O)[C@H](CC(N)=O)NC(=O)[C@H](CC(N)=O)NC(=O)[C@H](CO)NC(=O)[C@H](CO)NC(=O)[C@H](Cc1c[nH]cn1)NC(=O)[C@@H](NC(=O)[C@H](CC(C)C)NC(=O)[C@H](Cc1ccccc1)NC(=O)[C@H](CC(N)=O)NC(=O)[C@H](C)NC(=O)[C@H](CC(C)C)NC(=O)[C@H](CCCNC(=N)N)NC(=O)[C@H](CCC(N)=O)NC(=O)[C@@H](NC(=O)[C@H](C)NC(=O)[C@@H]1CSSC[C@H](NC(=O)[C@@H](N)CCCCN)C(=O)N[C@@H](CC(N)=O)C(=O)N[C@@H]([C@@H](C)O)C(=O)N[C@@H](C)C(=O)N[C@@H]([C@@H](C)O)C(=O)N1)[C@@H](C)O)C(C)C)C(=O)N[C@@H](CC(C)C)C(=O)N1CCC[C@H]1C(=O)N1CCC[C@H]1C(=O)N[C@H](C(=O)N[C@@H](CC(N)=O)C(=O)N[C@H](C(=O)NCC(=O)N[C@@H](CO)C(=O)N[C@@H](CC(N)=O)C(=O)N[C@H](C(=O)N[C@@H](Cc1ccc(O)cc1)C(N)=O)[C@@H](C)O)C(C)C)[C@@H](C)O", "note": "[pramlintide, ^25,28,29Pro-h-amylin]", "values": [{"measurement": "Mean Change in Body Weight (kg) over lead-in period", "setting": "[2]; 4-week lead-in, all subjects received pramlintide 180 then 360 mcg BID, columns name the later randomization groups", "result": -3.65, "unit": "kg"}, {"measurement": "rate of change in body weight, late rate (12-20 weeks)", "setting": "[2]", "result": "approached a late rate of zero"}, {"measurement": "body weight reduced on average at the end of the 24-week study", "setting": "[2]; overweight and obese subjects, pramlintide 360 mcg BID, metreleptin 5 mg BID, p<0.001", "result": 8.4, "unit": "%"}]}
{"molecule": "Cc1c(C(=O)NN2CCCCC2)nn(-c2ccc(Cl)cc2Cl)c1-c1ccc(Cl)cc1", "note": "[rimonabant, reference compound]", "values": [{"measurement": "changes in body protein (lean (protein) mass)", "setting": "[3]", "result": "relatively equivalent increase in lean (protein) mass"}]}
{"molecule": "CC(C)CC(N(C)C)C1(c2ccc(Cl)cc2)CCC1", "note": "(stereo not drawn) [sibutramine, reference compound]", "values": [{"measurement": "changes in body protein (lean (protein) mass)", "setting": "[4]", "result": "relatively unchanged"}]}
{"molecule": "Rat amylin", "values": [{"measurement": "plasma (serum) leptin levels, DIO prone animals", "setting": "[5]; DIO prone rats", "result": "significantly reduced"}, {"measurement": "plasma (serum) leptin levels, normal animals", "setting": "[5]; normal HSD rats", "result": "significantly reduced"}, {"measurement": "changes in body protein (lean (protein) mass)", "setting": "[4]", "result": "increase in lean (protein) mass"}, {"measurement": "changes in body protein (lean (protein) mass)", "setting": "[1]", "result": "preserved lean (protein) mass"}, {"measurement": "changes in body protein (lean (protein) mass)", "setting": "[3]", "result": "relatively equivalent increase in lean (protein) mass"}, {"measurement": "changes in body protein (lean (protein) mass)", "setting": "[6]", "result": "relatively equivalent increase in lean (protein) mass"}, {"measurement": "changes in body protein (lean (protein) mass)", "setting": "[7]", "result": "increase in lean (protein) mass"}]}
{"molecule": "^14Leu-exendin-4 [Exendin-4 analog]", "values": [{"measurement": "changes in body protein (lean (protein) mass)", "setting": "[6]", "result": "relatively equivalent increase in lean (protein) mass"}]}
{"molecule": "recombinant methionyl human leptin [metreleptin]", "values": [{"measurement": "rate of change in body weight, late rate (12-20 weeks)", "setting": "[2]", "result": "approached a late rate of zero"}]}
